The target in assay [1] is T1, rat B1R (Rattus norvegicus, UniProt P97583).
T1 construct: expressed in transfected cells; host or cells: CHO K1 cells
T1 sequence (P97583 1-337): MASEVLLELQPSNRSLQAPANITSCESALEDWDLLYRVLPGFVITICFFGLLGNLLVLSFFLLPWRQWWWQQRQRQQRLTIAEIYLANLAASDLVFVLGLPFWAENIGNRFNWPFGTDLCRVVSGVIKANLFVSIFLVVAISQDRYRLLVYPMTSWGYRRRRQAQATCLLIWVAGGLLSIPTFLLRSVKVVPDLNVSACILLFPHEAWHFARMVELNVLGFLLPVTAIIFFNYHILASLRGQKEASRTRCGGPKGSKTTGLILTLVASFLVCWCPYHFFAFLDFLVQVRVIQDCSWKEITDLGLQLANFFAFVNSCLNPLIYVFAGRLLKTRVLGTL
Put plainly: FLIPR Ca2+ functional study on bradykinin receptor 1 (rB1R CHO K1 cells). The assay is classed as cell-based. The note with it: CHO-K1, % inhibition rat B1R at 10 μM, read-out: % inh. (rat B1R) 10 μM. The method in brief: (§1)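 CHO K1 cells stably expressing human or rat B1R were loaded with Fluo-4 and read on FLIPR (ex 488/em 540 nm, peak counts). Test compound (10 μM, or a concentration range for IC50) was added first for % activation versus control agonist; after 10-20 min, EC80 Lys-Des-Arg9-bradykinin (human) or Des-Arg9-bradykinin (rat) was added, giving % inhibition of maximum. n=2-3, N≥2.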

The target in assay [2] is T2, human B1R (Homo sapiens, UniProt P46663).
T2 construct: expressed in transfected cells; host or cells: CHO K1 cells
T2 sequence (P46663 1-353): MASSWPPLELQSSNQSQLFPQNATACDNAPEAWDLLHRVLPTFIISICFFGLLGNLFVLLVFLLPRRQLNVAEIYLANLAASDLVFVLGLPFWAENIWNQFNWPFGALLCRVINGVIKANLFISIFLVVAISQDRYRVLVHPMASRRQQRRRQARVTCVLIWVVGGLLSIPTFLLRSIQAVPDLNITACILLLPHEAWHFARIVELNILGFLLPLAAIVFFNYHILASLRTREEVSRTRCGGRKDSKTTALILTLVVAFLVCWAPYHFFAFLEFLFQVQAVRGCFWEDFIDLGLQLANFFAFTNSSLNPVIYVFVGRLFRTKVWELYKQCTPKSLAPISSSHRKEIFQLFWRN
Kind of assay: FLIPR Ca2+ functional study on bradykinin receptor 1 (hB1R CHO K1 cells). The assay is classed as cell-based. The note with it: % inhibition human B1R at 10 μM, read-out: % inh. (hum. B1R) 10 μM. The method in brief: as §1

The structures appear in SMILES notation.

Turning to `COc1cc(C)c(S(=O)(=O)N(CCOc2nccc(N3CC(N4CCc5cc(CN6CCC6)ccc5C4)C3)n2)C2CC2)c(C)c1` [Example G-020, N-[2-[[4-[3-[6-(1-azetidinylmethyl)-3,4-dihydro-1H-isoquinolin-2-yl]-1-azetidinyl]-2-pyrimidinyl]oxy]ethyl]-N-cyclopropyl-4-methoxy-2,6-dimethylbenzenesulfonamide], the inhibition at 10 µM in assay [1] was found to be 101%; in assay [2] it was 95%.

Consider `COc1cc(C)c(S(=O)(=O)N2CCC[C@H]2COc2nccc(N3CCC(CCN4CCCC4)CC3)n2)c(C)c1` [G_CC-016, 2-[[(2S)-1-(4-methoxy-2,6-dimethylphenyl)sulfonyl-2-pyrrolidinyl]methoxy]-4-[4-(2-1-pyrrolidinylethyl)-1-piperidinyl]pyrimidine], for which the results for the inhibition at 10 µM in assay [1] and in assay [2] were 100% and 96%, respectively.

Consider `Cc1cccc(Cl)c1S(=O)(=O)N(CCOc1nccc(N2CCC3(CCN(c4ccncc4)CC3)CC2)n1)C1CC1` [Example G-009, 2-chloro-N-cyclopropyl-6-methyl-N-[2-[[4-[9-(4-pyridyl)-3,9-diazaspiro[5.5]undecan-3-yl]-2-pyrimidinyl]oxy]ethyl]benzenesulfonamide], for which the figures for the inhibition at 10 µM in assay [1] and in assay [2] were 91% and 97%, respectively.

As to `O=S(=O)(c1ccccc1C(F)(F)F)N(CCOc1nccc(N2CCC3(CCN(c4ccncc4)CC3)CC2)n1)C1CC1` [Example G-010, N-cyclopropyl-N-[2-[[4-[9-(4-pyridyl)-3,9-diazaspiro[5.5]undecan-3-yl]-2-pyrimidinyl]oxy]ethyl]-2-(trifluoromethyl)benzenesulfonamide], the inhibition at 10 µM in assay [1] came to 89%; in assay [2] it was 98%.

On to `COc1cc(C)c(S(=O)(=O)N2C[C@H](F)C[C@H]2COc2nccc(N3CCC4(CCN(c5ccncc5)CC4)CC3)n2)c(C)c1` [Example G-011, 3-[2-[[(2S,4R)-4-fluoro-1-(4-methoxy-2,6-dimethylphenyl)sulfonyl-2-pyrrolidinyl]methoxy]-4-pyrimidinyl]-9-(4-pyridyl)-3,9-diazaspiro[5.5]undecane], for which the inhibition at 10 µM in assay [1] and in assay [2] was 99% throughout.

`COc1cc(C)c(S(=O)(=O)N2CCCCC2COc2nccc(N3CCN(c4ccncc4)CC3)n2)c(C)c1` (stereo not shown) [G_CC-013, 2-[[1-(4-methoxy-2,6-dimethylphenyl)sulfonyl-2-piperidinyl]methoxy]-4-[4-(4-pyridyl)-1-piperazinyl]pyrimidine]: the inhibition at 10 µM was 102% in assay [1] and 100% in assay [2].

`COc1cc(C)c(S(=O)(=O)N2CCCCC2COc2nccc(N3CCC(OCCN4CCCC4)(c4cccnc4)CC3)n2)c(C)c1` (stereo not shown) [Example G-004, 2-[[1-(4-methoxy-2,6-dimethylphenyl)sulfonyl-2-piperidinyl]methoxy]-4-[4-(3-pyridyl)-4-(2-1-pyrrolidinylethoxy)-1-piperidinyl]pyrimidine]: the inhibition at 10 µM in assay [1] amounted to 73%; in assay [2], 99%.

Regarding `COc1cc(C)c(S(=O)(=O)N(C)CCOc2nccc(N3CCC4(CCN(c5ccncc5)CC4)CC3)n2)c(C)c1` [G_CC-047, 4-methoxy-N,2,6-trimethyl-N-[2-[[4-[3-(4-pyridyl)-3,9-diazaspiro[5.5]undecan-9-yl]-2-pyrimidinyl]oxy]ethyl]benzenesulfonamide], the inhibition at 10 µM amounted to 99% in assay [1] and 100% in assay [2].

The values are drawn from patent US8269000B2, “Substituted pyrimidine and triazine compounds” (Gruenenthal GmbH, priority 2008, dated 2012).
